In patent publication US12723023B2, “Ionizable cationic lipids for RNA delivery” (Arcturus Therapeutics, Inc., priority 2021, dated 2026):

What was measured:
[1] = In vivo biodegradability assay (lipid concentration in mouse liver by LC-MS); parameters: species or system mice; conditions: BLOQ: below level of quantification; for In vivo degradability (ng tissue) at 48 h 0.1 mpk: Table 1, 0.1 mpk; for In vivo degradability (ng/tissue) at 48 h 0.1 mpk: Table 2, 0.1 mpk
Experimental: In vivo biodegradability assay was performed to assess the biodegradability of lipids in the LNP. Briefly, mice were injected with either 0.1 or 0.03 mg/Kg dose and after 24 or 48 hours mice livers were collected. To measure the concentration of lipids in the mouse liver, liver samples were homogenized in appropriate buffer in 1-10 dilution and mixed with the same amount of stabilized plasma. The samples were then mixed with organic solvents spiked with internal standard to precipitate proteins. After centrifugation, supernatant was diluted further with organic solvent before sample analysis by LC-MS. In LC-MS analysis, positive electrospray ionization was used, and multiple reaction monitoring (MRM) parameters were set up to specifically target the lipid analyte and internal standard. Calibration standards were prepared in stabilized plasma and mixed with same amount of homogenization buffer before protein precipitation. Quality control samples with known amounts of lipid was prepared in blank liver homogenate to monitor the precision and accuracy of the assay.

Mouse plasma stability = assay type: in vitro ADME, CD-1 mouse; conditions: 1 μM lipid
Experimental: Lipid stock solution was prepared by dissolution of the lipid in isopropanol at the concentration of 5 mg/mL. A requisite volume of the lipid-isopropanol solution was then diluted to 100 μM concentration at a total volume of 1.0 mL with in 50:50 (v/v) ethanol/water. Ten microliters of this 100 μM solution was spiked into 1.0 mL of mouse plasma (BioIVT, Cat. No.: MSE00PLNHUNN, CD-1 mouse, anticoagulant: sodium heparin, not filtered) that was pre-warmed to 37° C. and was stirred at 50 rpm with a magnetic stir bar. The starting concentration of lipids in plasma was thus 1 μM. At time points 0, 15, 30, 45, 60 and 120 min, 0.1 mL of the plasma was withdrawn from the reaction mixture and the protein was precipitated by adding 0.9 mL of ice-cold 4:1 (v/v) acetonitrile/methanol with 1 μg/mL of a selected internal standard lipid added. After filtration through a 0.45 micron 96-well filtering plate, the filtrates were analyzed by LC-MS (Thermo Fisher's Vanquish UHPLC-LTQ XL linear ion trap Mass Spectrometer); Waters XBridge BEH Shield RP18 2.5 micron (2.1×100 mm) column with its matching guard column. Mobile phase A was 0.1% formic acid in water, and mobile phase B was 0.1% formic acid in 1:1 (v/v) acetonitrile/methanol. Flow rate was 0.5 ml/min. Elution gradient was: Time 0-1 min: 10% B; 1-6 min: 10%-95% B; 6-8.5 min: 95% B; 8.5-9 min: 95%-10% B; 9-10 min: 10% B. Mass spectrometry was in positive scanning mode from 600-1100 m/z. The peak of the molecular ion of the lipids was integrated in the extracted ion chromatography (XIC) using Xcalibur software (Thermo Fisher). The relative peak area compared to T=0, after normalization by the peak area of the internal standard, was used as the percentage of the lipid remaining at each time point. T1/2 values were calculated using the first-order decay model.

hEPO = hEPO mRNA expression evaluation (hEPO-LNPs, serum hEPO by ELISA); assay type: in vivo, Balb/c mice; conditions: serum after 6 hr; for EPO exprssn (ng/mL) 0.03 mpk: 0.03 mpk hEPO-LNP intravenously; for EPO exprssn (ng/mL) 0.1 mpk: 0.1 mpk hEPO-LNP intravenously
Experimental: Lipid formulations comprising a hEPO mRNA below were evaluated for their ability to express hEPO in vivo according to the protocol of this example. All animal experiments were conducted using institutionally-approved protocols (IACUC). In this protocol, female Balb/c mice at least 6-8 weeks of age were purchased from Charles River Laboratory. The mice were intravenously injected with hEPO-LNPs via the tail vein with one of two dose levels of hEPO (0.1 and 0.03 mg/kg). After 6 hr, blood was collected with serum separation tubes, and the serum was isolated by centrifugation. Serum hEPO levels were then measured using an ELISA assay (Human Erythropoietin Quantikine IVD ELISA Kit, R&D Systems, Minneapolis, MD).

Structure (SMILES) | In vivo degradability (ng/tissue) at 48 h 0.03 mpk ([1]; Table 1, 0.03 mpk) | In vivo degradability (ng tissue) at 48 h 0.1 mpk [1] | In vivo degradability (ng/tissue) at 48 h 0.03 mpk ([1]; Table 2, 0.03 mpk) | In vivo degradability (ng/tissue) at 48 h 0.1 mpk [1] | Plasma half life % remaining after 2 h (Mouse plasma stability; Table 1, 37° C.) | Plasma half life % remaining after 2 h (Mouse plasma stability; Table 2, 37° C.) | EPO exprssn (ng/mL) 0.03 mpk (hEPO; Table 1) | EPO exprssn (ng/mL) 0.1 mpk (hEPO; Table 1) | EPO exprssn (ng/mL) 0.1 mpk (hEPO; Table 2)
CCC1CCC(C(=O)OCC(COC(=O)C2CCC(CC)CC2)OC(=O)CCCN(CCCC(=O)OC(COC(=O)C2CCC(CC)CC2)COC(=O)C2CCC(CC)CC2)C(=O)SCCCN(C)C)CC1 (centres unmarked) [LIPID 16, ((4,4′-((((3-(Dimethylamino)propyl)thio)carbonyl)azanediyl)bis(butanoyl))bis(oxy))bis(propane-2,1,3-triyl) tetrakis(4-ethylcyclohexane-1-carboxylate)] | <340 ng/tissue | <340 ng tissue | <340 ng/tissue | <340 ng/tissue | 40% | 40% | 2088 ng/mL | 6358 ng/mL | 2088 ng/mL
CC1CCC(CC(=O)OCC(COC(=O)CC2CCC(C)CC2)OC(=O)CCCN(CCCC(=O)OC(COC(=O)CC2CCC(C)CC2)COC(=O)CC2CCC(C)CC2)C(=O)SCCCN(C)C)CC1 (centres unmarked) [LIPID 15, ((4,4′-((((3-(dimethylamino)propyl)thio)carbonyl)-azanediyl)bis(butanoyl))bis(oxy))bis(propane-2,1,3-triyl) tetrakis(2-(4-methylcyclohexyl)acetate)] | <340 ng/tissue | <340 ng tissue | <340 ng/tissue | <340 ng/tissue | 256% | 100% |  |  | 
CC(CC1CCCCC1)C(=O)OCC(COC(=O)C(C)CC1CCCCC1)OC(=O)CCCN(CCCC(=O)OC(COC(=O)C(C)CC1CCCCC1)COC(=O)C(C)CC1CCCCC1)C(=O)SCCCN(C)C (centres unmarked) [LIPID 17, ((4,4′-((((3-(Dimethylamino)propyl)thio)carbonyl)-azanediyl)bis(butanoyl))bis(oxy))bis(propane-2,1,3-triyl) tetrakis(3-cyclohexyl-2-methylpropanoate)] | BLOQ | BLOQ | BLOQ | BLOQ |  | 100% | 1082 ng/mL | 1555 ng/mL | 1082 ng/mL
CCC1CCC(C(=O)OCC(C)(COC(=O)CCN(CCC(=O)OCC(C)(COC(=O)C2CCC(CC)CC2)COC(=O)C2CCC(CC)CC2)C(=O)SCCCN(C)C)COC(=O)C2CCC(CC)CC2)CC1 (centres unmarked) [LIPID 22, ((3,3′-((((3-(Dimethylamino)propyl)thio)carbonyl)azanediyl)bis(propanoyl))bis(oxy))bis(methylene)bis(2-methylpropane-2,1,3-triyl) tetrakis(2-(4-ethylcyclohexyl)acetate)] |  |  | <340 ng/tissue | <340 ng/tissue |  | 100% |  |  | 
CCCCC(C)(C)CC(=O)OCC(C)(COC(=O)CCN(CCC(=O)OCC(C)(COC(=O)CC(C)(C)CCCC)COC(=O)CC(C)(C)CCCC)C(=O)SCCCN(C)C)COC(=O)CC(C)(C)CCCC [LIPID 23] |  |  | <340 ng/tissue | <340 ng/tissue |  | 100% |  |  | 
CCCCCCCCC(=O)OCC(COC(=O)CCCCCCCC)OC(=O)CCC(CCC(=O)OC(COC(=O)CCCCCCCC)COC(=O)CCCCCCCC)OC(=O)CCCN(C)C [LIPID 5, bis(1,3-bis(Nonanoyloxy)propan-2-yl) 4-((4-(dimethylamino)butanoyl)oxy)heptanedioate] | BLOQ | BLOQ | BLOQ | BLOQ | 40% | 40% |  |  | 
CN(C)CCCSC(=O)N(CCCCCC(=O)OC(COC(=O)CCC1CCCCC1)COC(=O)CCC1CCCCC1)CCCCCC(=O)OC(COC(=O)CCC1CCCCC1)COC(=O)CCC1CCCCC1 [LIPID 12, ((6,6′-((((3 (dimethylamino)propyl)thio)carbonyl)azanediyl)bis(hexanoyl))bis(oxy))bis(propane-2,1,3-triyl) tetrakis(3-cyclohexylpropanoate)] | BLOQ | BLOQ | BLOQ | BLOQ | 57% | 57% |  |  | 
CCCCCCCCC(=O)OCC(COC(=O)CCCCCCCC)OC(=O)CCCC(CCCC(=O)OC(COC(=O)CCCCCCCC)COC(=O)CCCCCCCC)OC(=O)CCCN(C)C.Cl [LIPID 3, bis(1,3-bis(Nonanoyloxy)propan-2-yl) 5-((4-(dimethylamino)butanoyl)oxy)nonanedioate HCl Salt] | BLOQ | BLOQ | BLOQ | BLOQ | 15% | 15% |  |  | 
CC1CCC(CCC(=O)OCC(C)(COC(=O)CCC2CCC(C)CC2)COC(=O)CCN(CCC(=O)OCC(C)(COC(=O)CCC2CCC(C)CC2)COC(=O)CCC2CCC(C)CC2)C(=O)SCCCN(C)C)CC1 (centres unmarked) [LIPID 20] |  |  | <340 ng/tissue | <340 ng/tissue |  | 100% |  |  | 
